Source: publication PMC11845761, “Intestinal human carboxylesterase 2 (CES2) expression rescues drug metabolism and most metabolic syndrome phenotypes in global Ces2 cluster knockout mice” (Acta Pharmacologica Sinica, 2024)

Key:
[1] = Plasma pharmacokinetics of capecitabine and its metabolites after oral capecitabine in CES2-modified mice; type: in vivo, mouse; conditions: oral capecitabine 500 mg/kg, plasma
Experimental: (§1) For capecitabine 2-h experiments, 6–7 female mice received oral capecitabine (500 mg/kg, 10 μL/g), and tail vein blood samples were collected at 0.125, 0.25, 0.5 and 1 h after drug administration. For the vinorelbine 4-h experiment, 6-7 male mice received vinorelbine intravenously (10 mg/kg, 5 μL/g) or orally (10 mg/kg, 10 μL/g) using a blunt-ended needle. Tail vein blood samples were collected at 0.125, 0.25, 0.5, 1 and 2 h after drug administration. […] At the last time point in each experiment (2 or 4 h), mice were anesthetized with 5% isoflurane and blood was collected by cardiac puncture. […] Plasma was isolated from the blood by centrifugation at 9000 × g for 6 min at 4 °C, and the plasma fraction was collected and stored at −30 °C until analysis.
(§2) Concentrations of capecitabine (and its metabolites) and vinorelbine (and its metabolite) in mouse plasma samples and organ homogenates were determined using two independent validated high-performance liquid chromatography-tandem mass spectrometry assays.
(§3) Pharmacokinetic parameters were calculated by non-compartmental methods using the PK solver software. […] Differences were considered statistically significant when P < 0.05. All data are presented as mean ± SD.

[2] = Tissue concentrations of capecitabine and its metabolites 2 h after oral capecitabine in CES2-modified mice; type: in vivo, mouse; conditions: oral capecitabine 500 mg/kg
Experimental: as §1, §2, §3

NCC(F)C(=O)O (stereo not shown) [FBAL]
AUC0-2h ([1]; female Ces2^–/– mice): 1833 ± 504 ng·h/mL | AUC0-2h ratio (metabolite/capecitabine) ([1]; female Ces2^–/– mice): 0.07 ± 0.04 | Cmax ([1]; female Ces2^–/– mice): 1684 ± 597 ng/mL | Tmax ([1]; female Ces2^–/– mice): 2.0 ± 0.0 h | AUC0-2h ([1]; female Ces2^–/–A mice): 2910 ± 671 ng·h/mL | AUC0-2h ratio (metabolite/capecitabine) ([1]; female Ces2^–/–A mice): 0.12 ± 0.06 | Cmax ([1]; female Ces2^–/–A mice): 2923 ± 760 ng/mL | Tmax ([1]; female Ces2^–/–A mice): 1.8 ± 0.4 h | AUC0-2h ([1]; female Ces2^–/–V mice): 2874 ± 659 ng·h/mL | AUC0-2h ratio (metabolite/capecitabine) ([1]; female Ces2^–/–V mice): 0.20 ± 0.09 | Cmax ([1]; female Ces2^–/–V mice): 2606 ± 698 ng/mL | Tmax ([1]; female Ces2^–/–V mice): 2.0 ± 0.0 h | AUC0-2h ([1]; female wild-type mice): 1966 ± 158 ng·h/mL | AUC0-2h ratio (metabolite/capecitabine) ([1]; female wild-type mice): 0.35 ± 0.08 | Cmax ([1]; female wild-type mice): 1755 ± 308 ng/mL | Tmax ([1]; female wild-type mice): 2.0 ± 0.0 h | CSI (small intestine tissue concentration) ([2]; female Ces2^–/– mice): 1239 ± 335 ng/g | Ccolon (colon concentration) ([2]; female Ces2^–/– mice): 1355 ± 281 ng/g | Cliver (liver concentration) ([2]; female Ces2^–/– mice): 59839 ± 11722 ng/g | Colon concentration ratio (metabolite/capecitabine) ([2]; female Ces2^–/– mice): 0.12 ± 0.05 | Liver concentration ratio (metabolite/capecitabine) ([2]; female Ces2^–/– mice): 4.2 ± 2.7 | Small intestine concentration ratio (metabolite/capecitabine) ([2]; female Ces2^–/– mice): 0.08 ± 0.05 | CSI (small intestine tissue concentration) ([2]; female Ces2^–/–A mice): 2193 ± 960 ng/g | Ccolon (colon concentration) ([2]; female Ces2^–/–A mice): 2105 ± 600 ng/g | Cliver (liver concentration) ([2]; female Ces2^–/–A mice): 102959 ± 17203 ng/g | Colon concentration ratio (metabolite/capecitabine) ([2]; female Ces2^–/–A mice): 0.24 ± 0.02 | Liver concentration ratio (metabolite/capecitabine) ([2]; female Ces2^–/–A mice): 25 ± 11 | Small intestine concentration ratio (metabolite/capecitabine) ([2]; female Ces2^–/–A mice): 0.15 ± 0.04 | CSI (small intestine tissue concentration) ([2]; female Ces2^–/–V mice): 1830 ± 655 ng/g | Ccolon (colon concentration) ([2]; female Ces2^–/–V mice): 2080 ± 446 ng/g | Cliver (liver concentration) ([2]; female Ces2^–/–V mice): 77125 ± 16534 ng/g | Colon concentration ratio (metabolite/capecitabine) ([2]; female Ces2^–/–V mice): 0.60 ± 0.36^###^ | Liver concentration ratio (metabolite/capecitabine) ([2]; female Ces2^–/–V mice): 18 ± 16 | Small intestine concentration ratio (metabolite/capecitabine) ([2]; female Ces2^–/–V mice): 1.5 ± 2.0^###^^^ | CSI (small intestine tissue concentration) ([2]; female wild-type mice): 1174 ± 174 ng/g | Ccolon (colon concentration) ([2]; female wild-type mice): 1322 ± 249 ng/g | Cliver (liver concentration) ([2]; female wild-type mice): 55840 ± 13861 ng/g | Colon concentration ratio (metabolite/capecitabine) ([2]; female wild-type mice): 0.62 ± 0.16 | Liver concentration ratio (metabolite/capecitabine) ([2]; female wild-type mice): 48 ± 19 | Small intestine concentration ratio (metabolite/capecitabine) ([2]; female wild-type mice): 0.86 ± 0.38
